Data reported in patent US10100198B2, “Application of reduced dyes in imaging” (LI-COR, Inc., priority 2011, dated 2018).
“And” between values parts separate entries of the source, which are not always exact repeats. Equal values may be shown once. Blank lines part the entries; values can stand above or below the compound they belong to.

Tests used:
[1] = UV/vis absorption and emission; type: physicochemical; conditions: for Extinction Coefficient: in M-1·cm-1 (unit assumed)
Description: Compound 1 (80 mg), 3-(4-carboxybutyl)phenylboronic acid (40 mg), and cesium carbonate (20 mg) are stirred into 1:1 water:ethanol (10 ml) under nitrogen at room temperature. Tetrakis(triphenylphosphine)palladium(0) (10 mg) is added to the reaction mixture. The mixture was refluxed for 4 hours, and the solvent and volatile compounds are evaporated under vacuum. The crude product is purified by flash chromatography on reverse-phase C18-functionalized silica by eluting with a 1:4 acetonitrile:water mixture. The purified product 3 has UV/vis absorption max of λMeOH=680 nm, ε=229,000; λPBS=676 nm, ε=239,000.
Compound 7 (80 mg), 3-(2-carboxyethyl)phenylboronic acid (40 mg), and cesium carbonate (20 mg) were stirred into water (20 mL) under nitrogen at room temperature. Tetrakis(triphenylphosphine)palladium (0) (10 mg) were added to the reaction mixture. The mixture was refluxed for 4 h, and the solvent and volatile compounds then were evaporated under vacuum. The crude product was purified by flash chromatography on reverse-phase silica with an acetonitrile/water mixture as the eluent. The purified compound had λMeOH=680 nm, λPBS=672 nm, ε=160,000.

[2] = target: T1, HRP (Armoracia rusticana, UniProt P00433); assay: 800 HRP substrate test of DIR780F2-P, with and without enzyme, varied pH and Triton X-100; type: biochemical, horseradish; conditions: two hours at ambient temperature
T1 sequence (P00433 31-338): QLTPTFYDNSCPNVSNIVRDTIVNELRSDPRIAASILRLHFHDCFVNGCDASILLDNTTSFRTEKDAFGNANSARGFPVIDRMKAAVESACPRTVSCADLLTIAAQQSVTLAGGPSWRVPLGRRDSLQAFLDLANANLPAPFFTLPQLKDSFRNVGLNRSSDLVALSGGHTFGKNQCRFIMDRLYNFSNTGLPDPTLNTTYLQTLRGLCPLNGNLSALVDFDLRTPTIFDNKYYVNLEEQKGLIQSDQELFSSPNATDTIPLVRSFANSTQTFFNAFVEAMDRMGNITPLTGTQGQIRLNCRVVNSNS
Text: Their efficacies as 800 HRP substrates have been tested in the ELISA format.

[3] = test system: ROS generation in RAW264.7 macrophages; assay: Imaging LPS-induced ROS generation in RAW264.7 macrophages by fluorescence microscope; type: cell-based, mouse; conditions: RAW264.7 cells, 5 μM hydrocyanines, 30 min
[4] = Water solubility of reduced dyes; type: physicochemical
[5] = Cell permeability of reduced dyes; type: in vitro ADME
[6] = test system: β actin in A431 lysate; assay: Western blot detection with chemifluorescent substrates, A431 lysate probed with mouse anti-β actin and HRP goat anti-mouse antibodies; parameters: species or system Human
Text: Use of H-IR780F2 and H-IRDye® 800CW for blot imaging was compared to a commercially-available 680 HRP ELISA substrate (see FIG. 15). 4-12% Bis-Tris gels were loaded with 2-fold, 7-point serial dilutions of A431 lysate (high conc.=[…]), electrophoresed, transferred to Odyssey Nitrocellulose, blocked with SeaBlock Blocking Buffer (with ProClin preservative). The blots were probed with mouse anti-β actin antibodies, followed by HRP goat anti-mouse antibodies (FIG. 15, A-D) or dye-conjugated goat anti-mouse antibodies (FIG. 15, E-F). Blots probed with HRP goat anti-mouse antibodies were incubated for 5 min with chemifluorescent substrates in buffer containing hydrogen peroxide. H-IRDye® 800CW and H-IR780F2 were tested at 10 μM with 50-200 μM H2O2. HRP 680 ELISA substrate was used according to published protocols (i.e., LI-COR product no. 926-34300).
The basic workflow remains unchanged and therefore, the chemifluorescent substrate based analysis is amenable to other methods of protein analysis, such as ELISAs and protein arrays.

[7] = target: T2, goat anti-mouse HRP-labeled antibody (GAM-HRP) (Armoracia rusticana, UniProt P00433); assay: H-IR 780 / D-IR 780 as HRP substrate with HRP-labeled antibody in 96-well plate; type: biochemical, horseradish; conditions: 10 μM substrate, HRP 800 Assay Buffer pH 3.0, 10 minutes ambient temperature, Odyssey 800 nm channel
T2 sequence (P00433 31-338 limits assumed): T1 sequence (P00433 31-338)
Text: Reduced hydrocyanine dyes (H- or D-versions) are nonfluorescent, but turn fluorescent upon oxidation. This activation property was exploited to utilize the reduced hydrocyanine dyes as horseradish peroxidase (HRP) substrates. In certain embodiments of an enzymatic assay, the hydrocyanines can be oxidized by HRP using hydrogen peroxide as the oxidizing agent, yielding a fluorescent signal. In some preferred embodiments, this fluorescent signal's wavelength can range from 530-900 nm depending on the structure of the dye.
HRP 800 Assay Buffer: The HRP 800 Assay Buffer contains 60 μM Hydrogen Peroxide, 0.2 μg/mL Acetanilide, 0.02% Triton X−100, in 100 mM Citrate Buffer, pH 3.0.
H-IR 780 Substrate solution: 10 μM H-IR 780 in the HRP 800 Assay Buffer.
D-IR 780 Substrate solution: 10 μM D-IR 780 in the HRP 800 Assay Buffer.
The utility of the H-IR 780 and D-IR 780 as a HRP substrate was tested by reaction of the dye with an enzyme-labeled antibody. The substrate, when oxidized by HRP and hydrogen peroxide, yields a fluorescent signal at approximately 800 nm in the NIR. […] Wells B12, C12 and D12 received 10 μL of PBS buffer (pH 7.2) and were used as a control to measure the background fluorescence. […]

- Max. Abs. ([1]; MeOH): 680 nm
- Extinction Coefficient ([1]; MeOH): 229,000
- Max. Abs. ([1]; PBS): 676 nm
- Extinction Coefficient ([1]; PBS): 239,000
SMILES: CC1(C)C(/C=C/C(=C/C=C2/N(CCCS(=O)(=O)[O-])c3ccc4c(S(=O)(=O)[O-])cc(S(=O)(=O)[O-])cc4c3C2(C)C)c2cccc(CCCCC(=O)O)c2)=[N+](CCCS(=O)(=O)[O-])c2ccc3c(S(=O)(=O)[O-])cc(S(=O)(=O)[O-])cc3c21.[Na+].[Na+].[Na+].[Na+].[Na+] [Compound 3, Sodium 2-((1E,3Z,5E)-3-(3-(4-Carboxybutyl)phenyl)-5-(1,1-dimethyl-6,8-disulfonato-3-(3-sulfonatopropyl)-1H-benzo[e]indol-2(3H)-ylidene)penta-1,3-dienyl)-1,1-dimethyl-3-(3-sulfonatopropyl)-1H-benzo[e]indolium-6,8-disulfonate]

- Max. Abs. ([1]; MeOH): 680 nm
- Max. Emis. ([1]; MeOH): 694 nm
- Extinction Coefficient ([1]; MeOH): 170,000
- Max. Abs. ([1]; PBS): 672 nm
- Max. Emis. ([1]; PBS): 694 nm
- Extinction Coefficient ([1]; PBS): 160,000
SMILES: CC1(C)C(/C=C/C(=C/C=C2/N(CCCS(=O)(=O)[O-])c3ccc(S(=O)(=O)[O-])cc3C2(C)C)c2cccc(CCC(=O)O)c2)=Nc2c1cc(Cl)c[n+]2CCCS(=O)(=O)[O-].[Na+].[Na+] [Compound 8, Sodium (E)-2-((2Z,4E)-3-(3-(2-Carboxyethyl)phenyl)-5-(5-chloro-3,3-dimethyl-7-(3-sulfonatopropyl)-3H-pyrrolo[2,3-b]pyridin-7-ium-2-yl)penta-2,4-dienylidene)-3,3-dimethyl-1-(3-sulfonatopropyl)indoline-5-sulfonate]

- +Enzyme signal ([2]; pH 5, Triton X-100 0.01%): 111403 and 107251 and 95434 and 93017
- Mean Background ([2]; pH 5, Triton X-100 0.01%): 17016
- Mean Signal ([2]; pH 5, Triton X-100 0.01%): 101776
- Signal-Background ([2]; pH 5, Triton X-100 0.01%): 84761
- −Enzyme signal ([2]; pH 5, Triton X-100 0.01%): 14729 and 17889 and 16731 and 18713
- +Enzyme signal ([2]; pH 5, Triton X-100 0.05%): 110308 and 116984 and 91720 and 95384
- Mean Background ([2]; pH 5, Triton X-100 0.05%): 16011
- Mean Signal ([2]; pH 5, Triton X-100 0.05%): 103599
- Signal-Background ([2]; pH 5, Triton X-100 0.05%): 87588
- −Enzyme signal ([2]; pH 5, Triton X-100 0.05%): 15096 and 16995 and 15697 and 16257
- +Enzyme signal ([2]; pH 5, Triton X-100 0.1%): 86168 and 78778 and 79940 and 81063
- Mean Background ([2]; pH 5, Triton X-100 0.1%): 14716
- Mean Signal ([2]; pH 5, Triton X-100 0.1%): 81487
- Signal-Background ([2]; pH 5, Triton X-100 0.1%): 66771
- −Enzyme signal ([2]; pH 5, Triton X-100 0.1%): 14612 and 15268 and 14653 and 14330
- +Enzyme signal ([2]; pH 6, Triton X-100 0.01%): 65943 and 71002 and 70952 and 72922
- Mean Background ([2]; pH 6, Triton X-100 0.01%): 13218
- Mean Signal ([2]; pH 6, Triton X-100 0.01%): 70205
- Signal-Background ([2]; pH 6, Triton X-100 0.01%): 56987
- −Enzyme signal ([2]; pH 6, Triton X-100 0.01%): 12646 and 15381 and 12242 and 12600
- +Enzyme signal ([2]; pH 6, Triton X-100 0.05%): 72420 and 71667 and 65401 and 73540
- Mean Background ([2]; pH 6, Triton X-100 0.05%): 15498
- Mean Signal ([2]; pH 6, Triton X-100 0.05%): 70757
- Signal-Background ([2]; pH 6, Triton X-100 0.05%): 55259
- −Enzyme signal ([2]; pH 6, Triton X-100 0.05%): 16006 and 17026 and 14644 and 14316
- +Enzyme signal ([2]; pH 6, Triton X-100 0.1%): 73669 and 63411 and 72029 and 67718
- Mean Background ([2]; pH 6, Triton X-100 0.1%): 17956
- Mean Signal ([2]; pH 6, Triton X-100 0.1%): 69207
- Signal-Background ([2]; pH 6, Triton X-100 0.1%): 51251
- −Enzyme signal ([2]; pH 6, Triton X-100 0.1%): 21194 and 15983 and 19749 and 14897
SMILES: [2H]C1(C=CC2=C(c3cccc(F)c3F)C(=CC=C3N(CCC)c4ccccc4C3(C)C)CCC2)N(CCC)c2ccccc2C1(C)C (stereo not drawn) [DIR780F2-P]

SMILES: CCCN1/C(=C/C=C/C2N(CCC)c3ccccc3C2(C)C)C(C)(C)c2ccccc21 (stereo not drawn) [H-Cy3]
- fluorescent intensity in LPS treated cells compared to untreated cells [3]: increased fluorescent intensity in the LPS treated cells compared to the untreated cells

- water solubility [4]: improved water solubility
- cell permeability [5]: cell permeable
SMILES: CC1(C)\C(=C/C=C(Br)/C=C/C2N(CCCCCCO)c3ccccc3C2(C)C)N(CCCCCCO)c2ccccc21 (stereo not drawn) [H-IR650DIOL, 6-((E)-2-((2Z,4E)-3-bromo-5-(1-(6-hydroxyhexyl)-3,3-dimethylindolin-2-yl)penta-2,4-dien-1-ylidene)-3,3-dimethylindolin-1-yl)hexan-1-ol]

- water solubility [4]: improved water solubility
- cell permeability [5]: cell permeable
SMILES: CC1(C)\C(=C/C=C(Br)/C=C/C2N(CCCCCCO)c3ccc4ccccc4c3C2(C)C)N(CCCCCCO)c2ccc3ccccc3c21 (stereo not drawn) [H-IR680DIOL]

SMILES: CCCN1/C(=C/C=C2\CCCC(/C=C/C3N(CCC)c4ccccc4C3(C)C)=C2c2cccc(F)c2F)C(C)(C)c2ccccc21 (stereo not drawn) [H-IR780F2]
- fluorescent intensity in LPS treated cells compared to untreated cells [3]: increased fluorescent intensity in the LPS treated cells compared to the untreated cells
- Western blot signal, background and linearity ([6]; 10 μM substrate, 50-200 μM H2O2, 5 min incubation): good signal with high linearity for lower signals and moderate linearity for higher signals
- Lower Limit of Detection (LLD) ([6]; Western blots): 1.5 ng
- sensitivity compared to chemiluminescent detection (luminol-based reagent system) ([6]; Western blots): 32 fold
- sensitivity compared to fluorescent dye-conjugated secondary antibody detection ([6]; Western blots): 16 fold

SMILES: CCCN1/C(=C/C=C2\CCCC(/C=C/C3N(CCC)c4ccccc4C3(C)C)=C2Cl)C(C)(C)c2ccccc21 (stereo not drawn) [H-IR 780]
- fluorescence signal at approximately 800 nm versus GAM-HRP concentration [7]: intensity of the fluorescence signal increased with increasing concentration of GAM-HRP
